Experiments:
Experiment in all cases: cells
COLO-824 = type: functional, cell-based, Homo sapiens; conditions: Homo sapiens, COLO-824
Description: SANGER: Inhibition of human COLO-824 cell growth in a cell viability assay.

D-263MG = type: functional, cell-based, Homo sapiens; conditions: Homo sapiens, D-263MG
Description: SANGER: Inhibition of human D-263MG cell growth in a cell viability assay.

DB = type: functional, cell-based; conditions: Homo sapiens
Description: SANGER: Inhibition of human DB cell growth in a cell viability assay.

DOHH-2 = type: functional, cell-based; conditions: Homo sapiens;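 further: growth inhibition of human DOHH-2 cells, read out with a cell viability assay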
Description: SANGER: Inhibition of human DOHH-2 cell growth in a cell viability assay.

DOK = type: functional, cell-based, Homo sapiens; conditions: Homo sapiens, DOK;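 further: cell viability assay read-out, values reflect inhibition of cell growth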
Description: SANGER: Inhibition of human DOK cell growth in a cell viability assay.

EM-2 = type: functional, cell-based; conditions: Homo sapiens;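 further: growth inhibition of EM-2 cells, read out with a cell viability assay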
Description: SANGER: Inhibition of human EM-2 cell growth in a cell viability assay.

ES6 = type: functional, cell-based, Homo sapiens; conditions: Homo sapiens, ES6;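 further: growth inhibition of human ES6 cells, read out with a cell viability assay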
Description: SANGER: Inhibition of human ES6 cell growth in a cell viability assay.

EW-16 = type: functional, cell-based, Homo sapiens; conditions: Homo sapiens, EW-16;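 further: growth inhibition of human EW-16 cells, read out as cell viability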
Description: SANGER: Inhibition of human EW-16 cell growth in a cell viability assay.

EOL1 = type: functional, cell-based; conditions: Homo sapiens;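 further: growth inhibition of EoL-1 cells, read out by a cell viability assay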
Description: SANGER: Inhibition of human EoL-1-cell cell growth in a cell viability assay.

GAMG = type: functional, cell-based, Homo sapiens; conditions: Homo sapiens, GAMG;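 further: cell growth inhibition measured by a viability assay in the GAMG human cell line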
Description: SANGER: Inhibition of human GAMG cell growth in a cell viability assay.

GR-ST = type: functional, cell-based; conditions: Homo sapiens
Description: SANGER: Inhibition of human GR-ST cell growth in a cell viability assay.

HCC1569 = type: functional, cell-based, Homo sapiens; conditions: Homo sapiens, HCC1569;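 further: growth inhibition of human HCC1569 cells, read out with a cell viability assay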
Description: SANGER: Inhibition of human HCC1569 cell growth in a cell viability assay.

HCC 2998 = type: functional, cell-based, Homo sapiens; conditions: Homo sapiens, HCC 2998;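 further: growth inhibition of human HCC2998 cells, measured with a cell viability read-out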
Description: SANGER: Inhibition of human HCC2998 cell growth in a cell viability assay.

HOP-92 = type: functional, cell-based, Homo sapiens; conditions: Homo sapiens, HOP-92;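 further: cell viability readout, with IC50 reflecting inhibition of HOP-92 cell growth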
Description: SANGER: Inhibition of human HOP-92 cell growth in a cell viability assay.

HT = type: functional, cell-based; conditions: Homo sapiens
Description: SANGER: Inhibition of human HT cell growth in a cell viability assay.

KINGS-1 = type: functional, cell-based, Homo sapiens; conditions: Homo sapiens, KINGS-1;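 further: cell viability assay measuring suppression of KINGS-1 cell growth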
Description: SANGER: Inhibition of human KINGS-1 cell growth in a cell viability assay.

KM12 = type: functional, cell-based, Homo sapiens; conditions: Homo sapiens, KM12;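 further: KM12 cell growth inhibition, read out with a cell viability assay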
Description: SANGER: Inhibition of human KM12 cell growth in a cell viability assay.

KY821 = type: functional, cell-based; conditions: Homo sapiens;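 further: growth inhibition of human KY821 cells, read out by a cell viability assay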
Description: SANGER: Inhibition of human KY821 cell growth in a cell viability assay.

LS-1034 = type: functional, cell-based, Homo sapiens; conditions: Homo sapiens, LS-1034
Description: SANGER: Inhibition of human LS-1034 cell growth in a cell viability assay.

MHH-NB-11 = type: functional, cell-based, Homo sapiens; conditions: Homo sapiens, MHH-NB-11;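 further: growth inhibition of human MHH-NB-11 cells, read out by a cell viability assay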
Description: SANGER: Inhibition of human MHH-NB-11 cell growth in a cell viability assay.

MIA PaCa-2 = type: functional, cell-based, Homo sapiens; conditions: Homo sapiens, MIA PaCa-2;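 further: growth inhibition of MIA PaCa-2 cells, read out with a cell viability assay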
Description: SANGER: Inhibition of human MIA-PaCa-2 cell growth in a cell viability assay.

MKN-7 = type: functional, cell-based, Homo sapiens; conditions: Homo sapiens, MKN-7;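 further: growth inhibition of MKN-7 cells, read out with a cell viability assay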
Description: SANGER: Inhibition of human MKN7 cell growth in a cell viability assay.

NB6 = type: functional, cell-based, Homo sapiens; conditions: Homo sapiens, NB6;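 further: growth inhibition of NB6 cells, read out by a cell viability assay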
Description: SANGER: Inhibition of human NB6 cell growth in a cell viability assay.

NCI-H2030 = type: functional, cell-based, Homo sapiens; conditions: Homo sapiens, NCI-H2030;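 further: growth inhibition of human NCI-H2030 cells, read out by a cell viability assay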
Description: SANGER: Inhibition of human NCI-H2030 cell growth in a cell viability assay.

NCI-H2052 = type: functional, cell-based, Homo sapiens; conditions: Homo sapiens, NCI-H2052;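 further: growth inhibition of NCI-H2052 cells, read out with a cell viability assay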
Description: SANGER: Inhibition of human NCI-H2052 cell growth in a cell viability assay.

NCI-H727 = type: functional, cell-based, Homo sapiens; conditions: Homo sapiens, NCI-H727;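 further: growth inhibition of human NCI-H727 cells, read out with a cell viability assay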
Description: SANGER: Inhibition of human NCI-H727 cell growth in a cell viability assay.

NCI-N87 = type: functional, cell-based, Homo sapiens; conditions: Homo sapiens, NCI-N87;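 further: growth inhibition of human NCI-N87 cells, read out with a cell viability assay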
Description: SANGER: Inhibition of human NCI-N87 cell growth in a cell viability assay.

NH-12 = type: functional, cell-based, Homo sapiens; conditions: Homo sapiens, NH-12;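 further: growth inhibition of NH-12 cells, read out with a cell viability assay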
Description: SANGER: Inhibition of human NH-12 cell growth in a cell viability assay.

OMC-1 = type: functional, cell-based, Homo sapiens; conditions: Homo sapiens, OMC-1;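 further: growth inhibition of the OMC-1 cell line, measured by a cell viability assay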
Description: SANGER: Inhibition of human OMC-1 cell growth in a cell viability assay.

RS4-11 = type: functional, cell-based; conditions: Homo sapiens;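 further: growth inhibition of RS4-11 cells, read out by a cell viability assay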
Description: SANGER: Inhibition of human RS4-11 cell growth in a cell viability assay.

SBC-5 = type: functional, cell-based, Homo sapiens; conditions: Homo sapiens, SBC-5;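 further: cell viability assay read-out, IC50 is the concentration that inhibits growth of the cells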
Description: SANGER: Inhibition of human SBC-5 cell growth in a cell viability assay.

SK-MES-1 = type: functional, cell-based, Homo sapiens; conditions: Homo sapiens, SK-MES-1;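 further: growth inhibition of human SK-MES-1 cells, read out with a cell viability assay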
Description: SANGER: Inhibition of human SK-MES-1 cell growth in a cell viability assay.

SN12C = type: functional, cell-based, Homo sapiens; conditions: Homo sapiens, SN12C;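 further: growth inhibition of human SN12C cells, measured by a cell viability assay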
Description: SANGER: Inhibition of human SN12C cell growth in a cell viability assay.

SW1710 = type: functional, cell-based, Homo sapiens; conditions: Homo sapiens, SW1710;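 further: growth inhibition of SW1710 cells, determined with a cell viability assay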
Description: SANGER: Inhibition of human SW1710 cell growth in a cell viability assay.

SW780 = type: functional, cell-based, Homo sapiens; conditions: Homo sapiens, SW780;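 further: growth inhibition of the cells, read out with a cell viability assay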
Description: SANGER: Inhibition of human SW780 cell growth in a cell viability assay.

SW837 = type: functional, cell-based, Homo sapiens; conditions: Homo sapiens, SW837;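 further: growth inhibition of SW837 cells, determined with a cell viability assay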
Description: SANGER: Inhibition of human SW837 cell growth in a cell viability assay.

SW 954 = type: functional, cell-based, Homo sapiens; conditions: Homo sapiens, SW 954;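 further: growth inhibition of SW954 human cancer cells, read out as cell viability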
Description: SANGER: Inhibition of human SW954 cell growth in a cell viability assay.

SW 962 = type: functional, cell-based, Homo sapiens; conditions: Homo sapiens, SW 962;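 further: growth inhibition of human SW962 cells, read out by a cell viability assay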
Description: SANGER: Inhibition of human SW962 cell growth in a cell viability assay.

647-V = type: functional, cell-based, Homo sapiens; conditions: Homo sapiens, 647-V;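 further: growth inhibition of 647-V cells, read out with a cell viability assay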
Description: SANGER: Inhibition of human 647-V cell growth in a cell viability assay.

A 172 = type: functional, cell-based, Homo sapiens; conditions: Homo sapiens, A 172;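 further: growth inhibition of A172 cells, measured with a cell viability readout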
Description: SANGER: Inhibition of human A172 cell growth in a cell viability assay.

A2058 = type: functional, cell-based; conditions: Homo sapiens;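 further: reduction of A2058 cell growth, read out with a viability assay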
Description: SANGER: Inhibition of human A2058 cell growth in a cell viability assay.

A704 = type: functional, cell-based, Homo sapiens; conditions: Homo sapiens, A704;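 further: growth inhibition of human A704 cells, read out with a cell viability assay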
Description: SANGER: Inhibition of human A704 cell growth in a cell viability assay.

AM-38 = type: functional, cell-based, Homo sapiens; conditions: Homo sapiens, AM-38;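 further: growth inhibition of AM-38 cells of human origin, read out by a cell viability assay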
Description: SANGER: Inhibition of human AM-38 cell growth in a cell viability assay.

BXPC-3 = type: functional, cell-based, Homo sapiens; conditions: Homo sapiens, BXPC-3;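 further: growth inhibition of human BxPC-3 cells, read out by a cell viability assay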
Description: SANGER: Inhibition of human BxPC-3 cell growth in a cell viability assay.

TE-11 = type: functional, cell-based, Homo sapiens; conditions: Homo sapiens, TE-11;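 further: growth inhibition of human TE-11 cells, read out by a cell viability assay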
Description: SANGER: Inhibition of human TE-11 cell growth in a cell viability assay.

TE-6 = type: functional, cell-based, Homo sapiens; conditions: Homo sapiens, TE-6;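 further: growth inhibition of TE-6 cells, read out with a cell viability assay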
Description: SANGER: Inhibition of human TE-6 cell growth in a cell viability assay.

TGBC1TKB = type: functional, cell-based, Homo sapiens; conditions: Homo sapiens, TGBC1TKB;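 further: growth inhibition of TGBC1TKB cells, read out by a cell viability assay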
Description: SANGER: Inhibition of human TGBC1TKB cell growth in a cell viability assay.

U2OS = type: functional, cell-based, Homo sapiens, U-2-OS; conditions: Homo sapiens, U2OS;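 further: growth inhibition of human U-2-OS cells, determined with a cell viability assay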
Description: SANGER: Inhibition of human U-2-OS cell growth in a cell viability assay.

UMC-11 = type: functional, cell-based, Homo sapiens; conditions: Homo sapiens, UMC-11;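 further: growth inhibition of UMC-11 cells, read out with a cell viability assay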
Description: SANGER: Inhibition of human UMC-11 cell growth in a cell viability assay.

no-10 = type: functional, cell-based, Homo sapiens; conditions: Homo sapiens;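 further: growth inhibition of no-10 cells, read out with a cell viability assay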
Description: SANGER: Inhibition of human no-10 cell growth in a cell viability assay.

COLO-320-HSR = type: functional, cell-based; conditions: Homo sapiens;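 further: growth inhibition of COLO-320-HSR cells, determined with a cell viability assay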
Description: SANGER: Inhibition of human COLO-320-HSR cell growth in a cell viability assay.

COLO-679 = type: functional, cell-based, Homo sapiens; conditions: Homo sapiens, COLO-679
Description: SANGER: Inhibition of human COLO-679 cell growth in a cell viability assay.

Q: Which results are given for `COc1ccc(C2=N[C@@H](c3ccc(Cl)cc3)[C@@H](c3ccc(Cl)cc3)N2C(=O)N2CCNC(=O)C2)c(OC(C)C)c1` [NUTLIN-3]?
A: IC50 (COLO-824): > 8 µM; IC50 (D-263MG): > 8 µM; IC50 (DB): > 8 µM; IC50 (DOHH-2): 2420 nM; IC50 (DOK): > 8 µM; IC50 (EM-2): > 8 µM; IC50 (ES6): > 8 µM; IC50 (EW-16): > 8 µM; IC50 (EOL1): 1270 nM; IC50 (GAMG): > 8 µM; IC50 (GR-ST): > 8 µM; IC50 (HCC1569): > 8 µM; IC50 (HCC 2998): > 8 µM; IC50 (HOP-92): > 8 µM; IC50 (HT): > 8 µM; IC50 (KINGS-1): > 8 µM; IC50 (KM12): > 8 µM; IC50 (KY821): > 8 µM; IC50 (LS-1034): > 8 µM; IC50 (MHH-NB-11): 3.27 µM; IC50 (MIA PaCa-2): > 8 µM; IC50 (MKN-7): > 8 µM; IC50 (NB6): > 8 µM; IC50 (NCI-H2030): > 8 µM; IC50 (NCI-H2052): > 8 µM; IC50 (NCI-H727): > 8 µM; IC50 (NCI-N87): > 8 µM; IC50 (NH-12): 4.02 µM; IC50 (OMC-1): > 8 µM; IC50 (RS4-11): 2720 nM; IC50 (SBC-5): > 8 µM; IC50 (SK-MES-1): > 8 µM; IC50 (SN12C): > 8 µM; IC50 (SW1710): > 8 µM; IC50 (SW780): 2510 nM; IC50 (SW837): > 8 µM; IC50 (SW 954): 6.56 µM; IC50 (SW 962): > 8 µM; IC50 (647-V): > 8 µM; IC50 (A 172): 2680 nM; IC50 (A2058): > 8 µM; IC50 (A704): > 8 µM; IC50 (AM-38): 6.76 µM; IC50 (BXPC-3): > 8 µM; IC50 (TE-11): > 8 µM; IC50 (TE-6): > 8 µM; IC50 (TGBC1TKB): > 8 µM; IC50 (U2OS): 2910 nM; IC50 (UMC-11): > 8 µM; IC50 (no-10): > 8 µM; IC50 (COLO-320-HSR): > 8 µM; IC50 (COLO-679): > 8 µM

Q: With `O=C(c1cc(Cc2n[nH]c(=O)c3ccccc23)ccc1F)N1CCN(C(=O)C2CC2)CC1` [OLAPARIB] as the compound, how does the IC50 (COLO-824) read?
A: > 5 µM

Q: And the IC50 (D-263MG)?
A: > 5 µM

Q: What about the IC50 (DB) of the same compound?
A: 3.65 µM

Q: What about the IC50 (DOHH-2) of the same compound?
A: > 5000 nM

Q: What about the IC50 (DOK) of the same compound?
A: > 5 µM

Q: And the IC50 (EM-2)?
A: > 5 µM

Q: What about the IC50 (ES6) of the same compound?
A: > 5 µM

Q: What about the IC50 (EW-16) of the same compound?
A: > 5 µM

Q: And the IC50 (EOL1)?
A: 564 nM

Q: And the IC50 (GAMG)?
A: > 5 µM

Q: What about the IC50 (GR-ST) of the same compound?
A: > 5 µM

Q: And the IC50 (HCC1569)?
A: > 5 µM

Q: And the IC50 (HCC 2998)?
A: > 5 µM

Q: What about the IC50 (HOP-92) of the same compound?
A: > 5 µM

Q: And the IC50 (HT)?
A: > 5 µM

Q: What about the IC50 (KINGS-1) of the same compound?
A: > 5 µM

Q: What about the IC50 (KM12) of the same compound?
A: > 5 µM

Q: What about the IC50 (KY821) of the same compound?
A: > 5 µM

Q: And the IC50 (LS-1034)?
A: > 5 µM

Q: What about the IC50 (MHH-NB-11) of the same compound?
A: > 5 µM

Q: What about the IC50 (MIA PaCa-2) of the same compound?
A: > 5 µM

Q: And the IC50 (MKN-7)?
A: > 5 µM

Q: And the IC50 (NB6)?
A: > 5 µM

Q: What about the IC50 (NCI-H2030) of the same compound?
A: > 5 µM

Q: And the IC50 (NCI-H2052)?
A: > 5 µM

Q: And the IC50 (NCI-H727)?
A: > 5 µM

Q: And the IC50 (NCI-N87)?
A: > 5 µM

Q: What about the IC50 (NH-12) of the same compound?
A: > 5 µM

Q: What about the IC50 (OMC-1) of the same compound?
A: > 5 µM

Q: And the IC50 (RS4-11)?
A: > 5000 nM

Q: What about the IC50 (SBC-5) of the same compound?
A: > 5 µM

Q: What about the IC50 (SK-MES-1) of the same compound?
A: > 5 µM

Q: And the IC50 (SN12C)?
A: > 5 µM

Q: And the IC50 (SW1710)?
A: > 5 µM

Q: And the IC50 (SW780)?
A: > 5000 nM

Q: And the IC50 (SW837)?
A: > 5 µM

Q: And the IC50 (SW 954)?
A: > 5 µM

Q: What about the IC50 (SW 962) of the same compound?
A: > 5 µM

Q: What about the IC50 (647-V) of the same compound?
A: > 5 µM

Q: What about the IC50 (A 172) of the same compound?
A: > 5000 nM

Q: What about the IC50 (A2058) of the same compound?
A: > 5 µM

Q: And the IC50 (A704)?
A: > 5 µM

Q: What about the IC50 (AM-38) of the same compound?
A: > 5 µM

Q: What about the IC50 (BXPC-3) of the same compound?
A: > 5 µM

Q: And the IC50 (TE-11)?
A: > 5 µM

Q: And the IC50 (TE-6)?
A: > 5 µM

Q: And the IC50 (TGBC1TKB)?
A: > 5 µM

Q: And the IC50 (U2OS)?
A: > 5000 nM

Q: What about the IC50 (UMC-11) of the same compound?
A: > 5 µM

Q: And the IC50 (no-10)?
A: > 5 µM

Q: And the IC50 (COLO-320-HSR)?
A: > 5 µM

Q: What about the IC50 (COLO-679) of the same compound?
A: > 5 µM
